pEC50: −log10 of the molar value.
Target: α4β7 integrin (Homo sapiens (Human), UniProt P13612+P26010)
Assay: α4β7 Integrin Cell Capture Assay
Format: cell-based
[1] = Table 1, capture of α4β7 expressing RPM18866 cells on MadCAM-1 extracellular domain-coated plate
[2] = Table 2, capture of α4β7 expressing RPM18866 cells on MadCAM-1 extracellular domain-coated plate
[3] = RPMI8866 cells captured on MadCAM-1 extracellular domain-coated plate

Sequence of α4β7 integrin (P13612 34-1032): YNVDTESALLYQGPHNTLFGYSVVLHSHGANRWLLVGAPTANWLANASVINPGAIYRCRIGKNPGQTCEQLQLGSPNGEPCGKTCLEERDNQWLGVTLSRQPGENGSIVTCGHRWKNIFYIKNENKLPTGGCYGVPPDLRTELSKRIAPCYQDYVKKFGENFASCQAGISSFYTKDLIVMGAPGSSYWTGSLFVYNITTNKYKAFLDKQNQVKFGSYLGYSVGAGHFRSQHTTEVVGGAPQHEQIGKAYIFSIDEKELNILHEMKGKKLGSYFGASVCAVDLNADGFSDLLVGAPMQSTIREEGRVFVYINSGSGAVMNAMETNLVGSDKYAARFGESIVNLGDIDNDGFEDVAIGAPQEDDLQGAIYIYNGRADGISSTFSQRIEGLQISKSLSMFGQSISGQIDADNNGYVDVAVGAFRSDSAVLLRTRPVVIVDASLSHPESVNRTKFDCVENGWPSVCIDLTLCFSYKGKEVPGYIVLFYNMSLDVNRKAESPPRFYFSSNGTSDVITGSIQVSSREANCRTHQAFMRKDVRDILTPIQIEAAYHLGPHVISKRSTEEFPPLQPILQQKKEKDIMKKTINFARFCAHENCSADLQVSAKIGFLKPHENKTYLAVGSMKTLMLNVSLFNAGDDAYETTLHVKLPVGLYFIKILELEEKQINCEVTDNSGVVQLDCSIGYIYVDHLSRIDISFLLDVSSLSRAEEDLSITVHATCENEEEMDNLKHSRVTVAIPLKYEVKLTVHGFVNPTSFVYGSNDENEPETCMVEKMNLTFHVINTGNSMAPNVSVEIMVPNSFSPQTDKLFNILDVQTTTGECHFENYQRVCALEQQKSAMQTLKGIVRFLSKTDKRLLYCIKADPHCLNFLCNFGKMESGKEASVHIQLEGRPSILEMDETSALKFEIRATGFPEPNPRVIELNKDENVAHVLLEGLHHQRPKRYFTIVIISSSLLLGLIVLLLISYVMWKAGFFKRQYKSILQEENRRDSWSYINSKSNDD
Sequence of α4β7 integrin (P26010 20-798): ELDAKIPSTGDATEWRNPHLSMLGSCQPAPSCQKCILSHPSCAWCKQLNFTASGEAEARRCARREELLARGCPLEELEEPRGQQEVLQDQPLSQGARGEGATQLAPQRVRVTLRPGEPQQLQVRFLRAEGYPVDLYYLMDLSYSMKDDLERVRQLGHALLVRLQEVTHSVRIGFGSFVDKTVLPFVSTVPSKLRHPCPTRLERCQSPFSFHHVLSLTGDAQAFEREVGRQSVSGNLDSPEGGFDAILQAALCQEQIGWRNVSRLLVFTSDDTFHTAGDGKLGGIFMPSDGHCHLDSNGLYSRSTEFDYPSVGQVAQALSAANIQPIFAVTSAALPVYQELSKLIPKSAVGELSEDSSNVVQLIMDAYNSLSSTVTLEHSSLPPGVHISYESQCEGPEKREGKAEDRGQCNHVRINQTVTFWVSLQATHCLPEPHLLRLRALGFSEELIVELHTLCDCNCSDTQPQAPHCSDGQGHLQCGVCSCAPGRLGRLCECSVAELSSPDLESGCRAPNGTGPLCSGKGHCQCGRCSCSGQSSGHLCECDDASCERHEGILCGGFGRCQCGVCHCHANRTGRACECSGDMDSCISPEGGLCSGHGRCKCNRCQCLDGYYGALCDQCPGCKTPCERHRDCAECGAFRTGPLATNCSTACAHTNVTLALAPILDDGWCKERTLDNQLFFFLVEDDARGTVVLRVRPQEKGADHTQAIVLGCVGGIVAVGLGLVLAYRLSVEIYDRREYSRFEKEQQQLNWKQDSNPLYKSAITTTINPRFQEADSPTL

pEC50 [2] | Compound | also measured
7.22 | N#Cc1ccc(-c2ccc(C[C@H](NC(=O)c3c(F)cc(NC4(C(F)(F)F)CC4)cc3F)C(=O)O)c3cccnc23)c(Cl)c1 [Example 229] | 
7.54 | COc1cc(F)c(C(F)(F)F)cc1-c1ccc(C[C@H](NC(=O)c2c(F)cccc2F)C(=O)O)c2cccnc12 [Example 215] | 
7.99 | CC[C@@H](Nc1cc(F)c(C(=O)N[C@@H](Cc2ccc(-c3ncccc3C(C)C)c3ncccc23)C(=O)O)c(F)c1)C(F)(F)F [Example 305] | 
9.05 | CC[C@@H](Nc1cc(F)c(C(=O)N[C@@H](Cc2ccc(-c3cc4ccccc4n(C)c3=O)c3ncccc23)C(=O)O)c(F)c1)C(F)(F)F [Example 182] | 
9.52 | COc1c(-c2ccc(C[C@H](NC(=O)c3c(F)cc(N[C@H](C)C(F)(F)F)cc3F)C(=O)O)c3cccnc23)c(=O)n(C)c2ccccc12 [Example 156] | 
8.32 | CC[C@@H](Nc1cc(F)c(C(=O)N[C@@H](Cc2ccc(-c3nc(C)cc(OC)c3C(F)(F)F)c3ncccc23)C(=O)O)c(F)c1)C(F)(F)F [Example 275] | 

The remaining lines, values behind:

Compound | pEC50 [2] | also measured
CC[C@@H](Nc1cc(F)c(C(=O)N[C@@H](Cc2ccc(-c3c(C(F)(F)F)cc(C)n(C)c3=O)c3ncc(F)cc23)C(=O)O)c(F)c1)C(F)(F)F [Example 140, (S)-2-(2,6-difluoro-4-(((R)-1,1,1-trifluorobutan-2-yl)amino)benzamido)-3-(8-(1,6-dimethyl-2-oxo-4-(trifluoromethyl)-1,2-dihydropyridin-3-yl)-3-fluoroquinolin-5-yl)propanoic acid] |  | pEC50 [1]: 9.30
O=C(N[C@@H](Cc1ccc(-c2ncc3ccc(C4CC4)cc3c2C(F)(F)F)c2ncccc12)C(=O)O)c1c(Cl)cccc1Cl [Example 319] | 7.84 | 
Cc1cnc(-c2ccc(C[C@H](NC(=O)c3c(F)cc(N4CCOC[C@@H]4C(F)(F)F)cc3F)C(=O)O)c3cccnc23)c(C(F)(F)F)c1 [Example 260] | 8.42 | 
N#Cc1ccc(-c2ccc(C[C@H](NC(=O)c3c(F)cc(N4CCC[C@@H]4C(F)(F)F)cc3F)C(=O)O)c3cccnc23)c(Cl)c1 [Example 76, (S)-3-(8-(2-chloro-4-cyanophenyl)quinolin-5-yl)-2-(2,6-difluoro-4-((R)-2-(trifluoromethyl)pyrrolidin-1-yl)benzamido)propanoic acid] |  | pEC50 [1]: 7.11
CC(=O)Cc1cc(F)c(C(=O)N[C@@H](Cc2ccc(-c3ccc(C#N)cc3Cl)c3ncccc23)C(=O)O)c(F)c1 [Example 221] | 7.32 | 
O=C(N[C@@H](Cc1ccc(-c2c(Cl)cc(F)cc2Cl)c2ncc(F)cc12)C(=O)O)c1c(F)cccc1F [Example 32, (S)-3-(8-(2,6-dichloro-4-fluorophenyl)-3-fluoroquinolin-5-yl)-2-(2,6-difluorobenzamido)propanoic acid] |  | pEC50 [1]: 7.12
Cc1c(Cl)cc(-c2ccc(C[C@H](NC(=O)c3c(F)cc(N4CCOC[C@@H]4C(F)(F)F)cc3F)C(=O)O)c3cccnc23)c(=O)n1C [Example 161] | 9.52 | 
O=C(N[C@@H](Cc1ccc(-c2ccc3c4c(ccnc24)CCO3)c2ncccc12)C(=O)O)c1c(F)cccc1F [Example 306] | 7.95 | 
CC[C@@H](Nc1cc(C)c(C(=O)N[C@@H](Cc2ccc(-c3c(C)nc(C)n(C)c3=O)c3ncccc23)C(=O)O)c(F)c1)C(F)(F)F [Example 442] |  | pEC50 [3]: 9.64
COc1ccc(C(F)(F)F)c(-c2ccc(C[C@H](NC(=O)c3c(Cl)cccc3Cl)C(=O)O)c3cccnc23)n1 [Example 69, (S)-2-(2,6-dichlorobenzamido)-3-(8-(6-methoxy-3-(trifluoromethyl)pyridin-2-yl)quinolin-5-yl)propanoic acid] |  | pEC50 [1]: 7.54
Cc1cc(N2CCOC[C@@H]2C(F)(F)F)cc(F)c1C(=O)N[C@@H](Cc1ccc(-n2c(=O)c3cncnc3n(C)c2=O)c2ncccc12)C(=O)O [Example 406, (S)-2-(2-fluoro-6-methyl-4-((R)-3-(trifluoromethyl)morpholino)benzamido)-3-(8-(1-methyl-2,4-dioxo-1,4-dihydropyrimido[4,5-d]pyrimidin-3(2H)-yl)quinolin-5-yl)propanoic acid] |  | pEC50 [3]: 10.10
CC[C@@H](Nc1cc(F)c(C(=O)N[C@@H](Cc2ccc(-n3c(=O)c4ccncc4n(C)c3=O)c3ncccc23)C(=O)O)c(F)c1)C(F)(F)F [Example 475] |  | pEC50 [3]: 9.80
CC(=O)c1cc(F)c(C(=O)N[C@@H](Cc2ccc(-c3ccc(C#N)cc3Cl)c3ncccc23)C(=O)O)c(F)c1 [Example 241] | 7.10 | 
N#Cc1ccc(-c2ccc(C[C@H](NC(=O)c3c(F)cc(N4CCO[C@H](C(F)(F)F)C4)cc3F)C(=O)O)c3cccnc23)c(Cl)c1 [Example 85, (S)-3-(8-(2-chloro-4-cyanophenyl)quinolin-5-yl)-2-(2,6-difluoro-4-((S)-2-(trifluoromethyl)morpholino)benzamido)propanoic acid] |  | pEC50 [1]: 7.60
N#Cc1ccc(-c2ccc(C[C@H](NC(=O)c3c(Cl)cc4[nH]ccc4c3Cl)C(=O)O)c3cccnc23)c(Cl)c1 [Example 246] | 7.46 | 
CCn1c(=O)n(-c2ccc(C[C@H](NC(=O)c3c(C)cc(N4CCOC[C@@H]4C(F)(F)F)cc3F)C(=O)O)c3cccnc23)c(=O)c2ccncc21 [Example 417] |  | pEC50 [3]: 9.93
CC[C@@H](Nc1cc(Cl)c(C(=O)N[C@@H](Cc2ccc(-c3c(C(F)(F)F)cc(C)n(C)c3=O)c3ncccc23)C(=O)O)c(Cl)c1)C(F)(F)F [Example 143, (S)-2-(2,6-dichloro-4-(((R)-1,1,1-trifluorobutan-2-yl)amino)benzamido)-3-(8-(1,6-dimethyl-2-oxo-4-(trifluoromethyl)-1,2-dihydropyridin-3-yl)quinolin-5-yl)propanoic acid] |  | pEC50 [1]: 9.52
CC[C@@H](Nc1cc(F)c(C(=O)N[C@@H](Cc2ccc(-c3c(C(F)(F)F)c4ccncc4n(C)c3=O)c3ncccc23)C(=O)O)c(F)c1)C(F)(F)F [Example 111, (S)-2-(2,6-difluoro-4-(((R)-1,1,1-trifluorobutan-2-yl)amino)benzamido)-3-(8-(1-methyl-2-oxo-4-(trifluoromethyl)-1,2-dihydro-1,7-naphthyridin-3-yl)quinolin-5-yl)propanoic acid] |  | pEC50 [1]: 10.00
CC1(O)CCN(c2cc(F)c(C(=O)N[C@@H](Cc3ccc(-c4ccc(C#N)cc4Cl)c4ncccc34)C(=O)O)c(F)c2)CC1 [Example 216] | 7.51 | 
Cc1cc(C(F)(F)F)c(-c2ccc(C[C@H](NC(=O)c3c(F)cc(N4CCC[C@@H]4C(F)(F)F)cc3F)C(=O)O)c3cccnc23)c(=O)n1C (atropisomer, axis not shown) [Example 485] |  | pEC50 [3]: 9.63
COc1cccc(C)c1-c1ccc(C[C@H](NC(=O)c2c(F)cc(NS(=O)(=O)c3ccc(-c4ccnc(F)c4)cc3)cc2F)C(=O)O)c2cccnc12 [Example 64, (2S)-2-(2,6-difluoro-4-((4-(2-fluoropyridin-4-yl)phenyl)sulfonamido)benzamido)-3-(8-(2-methoxy-6-methylphenyl)quinolin-5-yl)propanoic acid] |  | pEC50 [1]: 9.10
O=C(N[C@@H](Cc1ccc(Nc2nccc3ccncc23)c2ncccc12)C(=O)O)c1c(Cl)cccc1Cl [Example 336] | 7.58 | 
O=C(N[C@H](C(=O)O)[C@@H](O)c1ccc(-c2c(Cl)cc(F)cc2Cl)c2ncccc12)c1c(F)cccc1F [Example 279] | 7.08 | 
COc1cc2c(=O)n(-c3ccc(C[C@H](NC(=O)c4c(C)cc(N5CCOC[C@@H]5C(F)(F)F)cc4F)C(=O)O)c4cccnc34)c(=O)n(C)c2cn1 [Example 429] |  | pEC50 [3]: 9.79

— patent US11116760B2 (Gilead Sciences, Inc., priority 2018, dated 2021)
